Assay results published in ChEMBL document CHEMBL1132807, “Synthesis of a heterocyclic aza-enediyne and its DNA-cleavage properties” (Bioorg Med Chem Lett, 2000).

Assay: Concentration required for cleaving the supercoiled DNA at pH 8
Type: functional

Work on `C[n+]1c(C#Cc2ccccc2)n(CC#Cc2ccccc2)c2ccccc21` yielded a Concentration of 100 µM.
